Experimental data: ChEMBL document CHEMBL4304741, “Modification and Biological Evaluation of a Series of 1,5-Diaryl-1,2,4-triazole Compounds as Novel Agents against Pancreatic Cancer Metastasis through Targeting Myoferlin” (J Med Chem, 2019)
Activity calls are given as the source filed them. No cut-off for these calls is given here.

Assays:
[1] = tested on: PANC-1; assay: Antimigratory activity against human PANC1 cells measured after 18 hrs in presence of mitomycin C using crystal violet staining by inverted microscopy-based transwell assay; type: functional, cell-based; conditions: PANC-1, 18 h
[2] = tested on: PANC-1; assay: Antiinvasive activity against human PANC1 cells measured after 18 hrs in presence of mitomycin C using crystal violet staining by inverted microscopy-based matrigel coated transwell assay; type: functional, cell-based; conditions: PANC-1, 18 h
[3] = Toxicity in Balb/c nude mouse xenografted with PANC1 cells assessed as pathological changes in spleen at 25 mg/kg/day, ip by H and E staining-based microscopic analysis; type: organism-based; conditions: in vivo
[4] = Toxicity in Balb/c nude mouse xenografted with PANC1 cells assessed as pathological changes in lung at 25 mg/kg/day, ip by H and E staining-based microscopic analysis; type: organism-based; conditions: in vivo
[5] = Toxicity in Balb/c nude mouse xenografted with PANC1 cells assessed as pathological changes in heart at 25 mg/kg/day, ip by H and E staining-based microscopic analysis; type: organism-based; conditions: in vivo
[6] = Toxicity in Balb/c nude mouse xenografted with PANC1 cells assessed as pathological changes in kidney at 25 mg/kg/day, ip by H and E staining-based microscopic analysis; type: organism-based; conditions: in vivo
[7] = tested on: PANC-1; assay: Antimetastatic activity against human PANC1 cells harboring luciferase reporter gene xenografted in Balb/c nude mouse at 25 mg/kg/day, ip measured every 10 days by bioluminescence imaging analysis; type: functional, organism-based
[8] = tested on: PANC-1; assay: Antimetastatic activity against human PANC1 cells harboring luciferase reporter gene xenografted in Balb/c nude mouse assessed as mouse survival at 25 mg/kg/day, ip (reference value: 25%); type: functional; conditions: PANC-1, ip
[9] = Toxicity in Balb/c nude mouse xenografted with PANC1 cells assessed as pathological changes in liver at 25 mg/kg/day, ip by H and E staining-based microscopic analysis; type: organism-based; conditions: in vivo
[10] = Toxicity in Balb/c nude mouse xenografted with PANC1 cells assessed as body weight loss at 25 mg/kg/day, ip; type: organism-based; conditions: in vivo
[11] = tested on: PANC-1; assay: Antimigratory activity against MYOF-knockout human PANC1 cells measured after 18 hrs in presence of mitomycin C using crystal violet staining by inverted microscopy-based transwell assay; type: functional, cell-based
[12] = molecular target: T1, Myoferlin (Homo sapiens, UniProt Q9NZM1); assay: Binding affinity to recombinant human GST-tagged MYOF C2 domain (3445 to 3912 residues) expressed in Escherichia coli BL21 (DE3) at 0.03125 to 0.5 uM by surface plasmon resonance analysis
T1 sequence (Q9NZM1 whole entry, the tested form may be a part): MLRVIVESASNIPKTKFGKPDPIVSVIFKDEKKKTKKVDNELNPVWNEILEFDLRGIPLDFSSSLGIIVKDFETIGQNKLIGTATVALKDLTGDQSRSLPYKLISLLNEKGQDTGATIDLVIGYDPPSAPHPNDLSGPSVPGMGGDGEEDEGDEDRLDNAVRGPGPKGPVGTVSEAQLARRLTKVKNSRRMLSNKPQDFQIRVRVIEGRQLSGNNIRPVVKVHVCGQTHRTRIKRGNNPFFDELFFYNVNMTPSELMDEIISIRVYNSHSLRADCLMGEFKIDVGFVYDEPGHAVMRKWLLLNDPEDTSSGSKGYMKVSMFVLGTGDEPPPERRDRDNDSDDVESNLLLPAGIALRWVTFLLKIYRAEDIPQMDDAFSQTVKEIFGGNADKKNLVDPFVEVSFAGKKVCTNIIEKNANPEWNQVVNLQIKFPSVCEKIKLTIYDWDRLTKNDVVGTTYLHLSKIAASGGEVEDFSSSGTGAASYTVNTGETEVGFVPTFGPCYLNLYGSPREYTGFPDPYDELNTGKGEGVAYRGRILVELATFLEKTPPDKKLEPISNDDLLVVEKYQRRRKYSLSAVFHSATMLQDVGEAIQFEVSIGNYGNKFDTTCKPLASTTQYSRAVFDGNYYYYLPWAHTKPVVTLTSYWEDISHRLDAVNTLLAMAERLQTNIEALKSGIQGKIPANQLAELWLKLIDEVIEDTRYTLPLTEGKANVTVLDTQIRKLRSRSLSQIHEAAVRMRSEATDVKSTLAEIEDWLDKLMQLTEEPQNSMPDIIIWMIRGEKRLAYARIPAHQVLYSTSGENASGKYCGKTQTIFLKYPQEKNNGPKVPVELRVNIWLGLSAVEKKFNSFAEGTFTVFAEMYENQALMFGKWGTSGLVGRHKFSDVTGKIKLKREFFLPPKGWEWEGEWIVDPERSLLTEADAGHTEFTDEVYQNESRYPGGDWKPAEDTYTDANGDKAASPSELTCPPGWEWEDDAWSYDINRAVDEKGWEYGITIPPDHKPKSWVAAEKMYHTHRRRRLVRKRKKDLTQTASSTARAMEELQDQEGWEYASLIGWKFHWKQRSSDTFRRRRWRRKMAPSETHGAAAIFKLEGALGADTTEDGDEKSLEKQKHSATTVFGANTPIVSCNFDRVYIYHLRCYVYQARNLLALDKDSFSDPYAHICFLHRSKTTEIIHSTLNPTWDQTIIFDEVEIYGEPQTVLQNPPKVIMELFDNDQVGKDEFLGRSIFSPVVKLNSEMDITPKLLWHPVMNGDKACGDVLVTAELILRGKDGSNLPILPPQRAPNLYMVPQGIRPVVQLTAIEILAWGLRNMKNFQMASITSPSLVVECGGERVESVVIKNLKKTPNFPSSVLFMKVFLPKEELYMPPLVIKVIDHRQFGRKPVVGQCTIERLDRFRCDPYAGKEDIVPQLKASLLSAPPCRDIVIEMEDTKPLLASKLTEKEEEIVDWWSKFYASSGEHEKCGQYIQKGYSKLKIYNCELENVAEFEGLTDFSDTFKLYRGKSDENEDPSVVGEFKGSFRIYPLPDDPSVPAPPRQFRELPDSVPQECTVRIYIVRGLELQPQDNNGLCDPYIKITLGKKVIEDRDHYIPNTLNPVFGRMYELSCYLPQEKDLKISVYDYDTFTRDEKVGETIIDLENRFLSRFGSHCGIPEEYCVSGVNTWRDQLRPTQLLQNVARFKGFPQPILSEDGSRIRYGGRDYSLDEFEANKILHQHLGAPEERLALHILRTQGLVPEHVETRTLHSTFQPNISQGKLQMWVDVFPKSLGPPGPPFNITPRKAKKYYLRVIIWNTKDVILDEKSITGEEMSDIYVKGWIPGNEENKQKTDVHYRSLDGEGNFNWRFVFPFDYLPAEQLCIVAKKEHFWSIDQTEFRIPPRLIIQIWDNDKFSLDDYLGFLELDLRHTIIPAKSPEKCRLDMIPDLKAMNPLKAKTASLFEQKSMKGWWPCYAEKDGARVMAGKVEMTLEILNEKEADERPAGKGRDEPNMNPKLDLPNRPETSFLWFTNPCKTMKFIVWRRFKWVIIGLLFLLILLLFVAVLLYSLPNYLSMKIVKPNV

[13] = molecular target: T1, Myoferlin; assay: Binding affinity to recombinant human GST-tagged MYOF C2 domain (3445 to 3912 residues) expressed in Escherichia coli BL21 (DE3) at 0.3125 to 10 uM by surface plasmon resonance analysis

IC50 [1] [nM]	Structure (SMILES)	also measured
810	CCc1nc(-c2ccc(OC)nc2)n(-c2cccc(C(=O)NCCCCc3ccccc3)c2)n1	
1680	COc1ccc(-n2nc(C)nc2-c2cccc(C(=O)NCCCCc3ccccc3)c2)cc1	
640	CCc1nc(-c2ccc(OC(F)(F)F)cc2)n(-c2cccc(C(=O)NCCCCc3ccccc3)c2)n1	
> 20000	COc1ccc(-c2ncnn2-c2cccc(C(=O)NCCCCc3ccccc3)c2)cc1	
> 20000	COc1ccc(-c2nc(C(C)C)nn2-c2cccc(C(=O)NCCCCc3ccccc3)c2)cc1	
16800	CCOc1ccc(-c2nc(CC)nn2-c2cccc(C(=O)NCCCCc3ccccc3)c2)cc1	
> 20000	COc1ccc(-c2nc(C)nn2-c2cccc(C(=O)NCCCCCc3ccccc3)c2)cc1	
1350	CCc1nc(-c2cncc(C(=O)NCCCCc3ccccc3)c2)n(-c2ccc(OC)cc2)n1	
140	CCc1nc(-c2ccc(OC)cc2)n(-c2cccc(C(=O)NCCCCc3ccccc3)c2)n1	Activity [12]: Active; IC50 [2]: 180 nM
630	COc1ccc(-c2nc(C)nn2-c2cccc(C(=O)NCCCCc3ccccc3)c2)cc1	Activity [13]: Active
220	CCc1nc(-c2ccc(O)cc2)n(-c2cccc(C(=O)NCCCCc3ccccc3)c2)n1	
1620	CCc1nc(-c2ccc(OC)cc2)n(-c2cncc(C(=O)NCCCCc3ccccc3)c2)n1	
16800	CCCCc1nc(-c2ccc(OC)cc2)n(-c2cccc(C(=O)NCCCCc3ccccc3)c2)n1	
120	CCc1nc(-c2ccc(OC)cn2)n(-c2cccc(C(=O)NCCCCc3ccccc3)c2)n1	IC50 [2]: 150 nM
420	CCc1nc(-c2cccc(C(=O)NCCCCc3ccccc3)c2)n(-c2ccc(OC)cc2)n1	
830	CCc1nc(-c2ccc(OC(F)F)cc2)n(-c2cccc(C(=O)NCCCCc3ccccc3)c2)n1	
7680	COc1ccc(-c2nc(C3CC3)nn2-c2cccc(C(=O)NCCCCc3ccccc3)c2)cc1	

More lines, now with the values behind:

Structure (SMILES)	IC50 [1] [nM]	also measured
COc1ccc(-c2nc(C)nn2-c2cccc(C(=O)NCCc3ccccn3)c2)cc1	> 20000	
COc1ccc(-c2nc(C)nn2-c2cccc(C(=O)NCCCOc3ccccc3)c2)cc1	3120	IC50 [2]: 3560 nM
CCc1nc(-c2cnc(OC)cn2)n(-c2cccc(C(=O)NCCCCc3ccccc3)c2)n1	310	
COc1ccc(-c2nc(C)nn2-c2cccc(C(=O)NCCc3ccc(Br)cc3)c2)cc1	3240	IC50 [2]: 2960 nM
COc1ccc(-c2nc(C)nn2-c2cccc(C(=O)NCCOCc3ccccc3)c2)cc1	9340	
COc1ccc(-c2nc(C)nn2-c2cccc(C(=O)NCCCc3ccc(Br)cc3)c2)cc1	> 20000	
Nc1ccn([C@@H]2O[C@H](CO)[C@@H](O)C2(F)F)c(=O)n1 [GEMCITABINE]	160	Activity [3]: Non-Toxic; Activity [4]: Non-Toxic; Activity [5]: Non-Toxic; Activity [6]: Non-Toxic; Activity [7]: Active; survival at 25 mg/kg/day [8]: 60%; IC50 [2]: 160 nM; Activity [9]: Non-Toxic; Activity [10]: Non-Toxic
COc1ccc(-c2nc(C)nn2-c2cccc(C(=O)NCCc3ccncc3)c2)cc1	> 20000	
CC(=O)O[C@@]12CO[C@@H]1C[C@H](O)[C@@]1(C)C(=O)[C@H](O)C3=C(C)[C@@H](OC(=O)[C@H](O)[C@@H](NC(=O)OC(C)(C)C)c4ccccc4)C[C@@](O)([C@@H](OC(=O)c4ccccc4)[C@H]21)C3(C)C		Activity [11]: Active
CCc1nc(-c2cccc(C(=O)NCCCCc3ccccc3)n2)n(-c2ccc(OC)cc2)n1	9640	
COc1ccccc1-c1nc(C)nn1-c1cccc(C(=O)NCCc2ccc(Br)cc2)c1	7920	IC50 [2]: 10900 nM
COc1ccc(-c2nc(C)nn2-c2cccc(C(=O)NCCc3cccs3)c2)cc1	> 20000	
COc1ccccc1-c1nc(C)nn1-c1cccc(C(=O)NCCc2ccc(Cl)cc2)c1	> 20000	IC50 [2]: 27600 nM
COc1ccccc1N1C(=O)CSC1c1cccc(C(=O)NCCc2ccc(Br)cc2)c1 (stereo not drawn)	390	IC50 [2]: 540 nM
COc1ccc(-c2nc(C)nn2-c2cccc(C(=O)NCCCc3ccc(Cl)cc3)c2)cc1	> 20000	
COc1ccc(-c2nc(C)nn2-c2cccc(C(=O)NCCc3ccc(Cl)cc3)c2)cc1	4360	IC50 [2]: 9870 nM
COc1ccc(-c2nc(C)nn2-c2cccc(C(=O)NCCCCc3ccc(Br)cc3)c2)cc1	3020	
